Where two headings read alike, the source gives them in different places.
Key:
[1] = test system: Phakopsora pachyrhizi; test: Fungicidal activity against Phakopsora pachyrhizi / soybean / leaf disc preventative (Asian soybean rust); assay type: in vivo; conditions: foliar, read-out: disease control compared to untreated control leaf disks
Experimental: (§1) Leaf disks or leaf segments of various plant species are cut from plants grown in a greenhouse. The cut leaf disks or segments are placed in multiwell plates (24-well format) onto water agar. The leaf disks are sprayed with a test solution before (preventative) or after (curative) inoculation. Compounds to be tested are prepared as DMSO solutions (max. 10 mg/ml) which are diluted to the appropriate concentration with 0.025% Tween20 just before spraying. The inoculated leaf disks or segments are incubated under defined conditions (temperature, relative humidity, light, etc.) according to the respective test system. A single evaluation of disease level is carried out 3 to 14 days after inoculation, depending on the pathosystem. Percent disease control relative to the untreated check leaf disks or segments is then calculated. General Examples of Liquid Culture Tests in Well Plates:
Example 3: Fungicidal Activity Against Phakopsora pachyrhizi/Soybean/Leaf Disc Preventative (Asian Soybean Rust)
Soybean leaf disks are placed on water agar in multiwell plates (24-well format) and sprayed with the formulated test compound diluted in water. One day after application leaf discs are inoculated by spraying a spore suspension on the lower leaf surface. After an incubation period in a climate cabinet of 24-36 hours in darkness at 20° C. and 75% rh leaf disc are kept at 20° C. with 12 h light/day and 75% rh. The activity of a compound is assessed as percent disease control compared to untreated when an appropriate level of disease damage appears in untreated check leaf disks (12 to 14 days after application).
(§2) The following compounds at 200 ppm in the applied formulation give at least 80% disease control in this test when compared to untreated control leaf disks under the same conditions, which show extensive disease development.

[2] = test system: Glomerella laqenarium (Colletotrichum lagenarium); test: Fungicidal activity against Glomerella lagenarium (Colletotrichum lagenarium) liquid culture / cucumber / preventative (anthracnose); assay type: cell-based; conditions: Colletotrichum orbiculare, read-out: disease control compared to untreated control (inhibition of growth measured photometrically)
Experimental: Mycelia fragments or conidia suspensions of a fungus prepared either freshly from liquid cultures of the fungus or from cryogenic storage, are directly mixed into nutrient broth. DMSO solutions of the test compound (max. 10 mg/ml) are diluted with 0.025% Tween20 by a factor of 50 and 10 μl of this solution is pipetted into a microtiter plate (96-well format). The nutrient broth containing the fungal spores/mycelia fragments is then added to give an end concentration of the tested compound. The test plates are incubated in the dark at 24° C. and 96% relative humidity. The inhibition of fungal growth is determined photometrically after 2 to 7 days, depending on the pathosystem, and percent antifungal activity relative to the untreated check is calculated.
Example 4: Fungicidal Activity Against Glomerella laqenarium (Colletotrichum lagenarium) Liquid Culture/Cucumber/Preventative (Anthracnose)
Conidia of the fungus from cryogenic storage are directly mixed into nutrient broth (PDB—potato dextrose broth). After placing a (DMSO) solution of test compound into a microtiter plate (96-well format), the nutrient broth containing the fungal spores is added. The test plates are incubated at 24° C. and the inhibition of growth is measured photometrically 3 to 4 days after application.
The following compounds at 20 ppm in the applied formulation give at least 80% disease control in this test when compared to untreated control under the same conditions, which show extensive disease development.

[3] = test system: Puccinia recondita f. sp. tritici; test: Fungicidal activity against Puccinia recondita f. sp. tritici / wheat / leaf disc curative (brown rust); assay type: in vivo; conditions: foliar, 200 ppm in the applied formulation, wheat leaf segments cv. Kanzler, curative (applied 1 day after inoculation), assessed 6 to 8 days after application, read-out: disease control compared to untreated control leaf disks
Experimental: as §1
Example 2: Fungicidal Activity Against Puccinia recondita f. sp. Tritici/Wheat/Leaf Disc Curative (Brown Rust)
Wheat leaf segments cv. Kanzler are placed on agar in multiwell plates (24-well format). The leaf segments are then inoculated with a spore suspension of the fungus. Plates were stored in darkness at 19° C. and 75% relative humidity. The formulated test compound diluted in water was applied 1 day after inoculation. The leaf segments were incubated at 19° C. and 75% relative humidity under a light regime of 12 hours light/12 hours darkness in a climate cabinet and the activity of a compound was assessed as percent disease control compared to untreated when an appropriate level of disease damage appears in untreated check leaf segments (6 to 8 days after application).
as §2

[4] = test system: Puccinia recondita f. sp. tritici; test: Fungicidal activity against Puccinia recondita f. sp. tritici / wheat / leaf disc preventative (brown rust); assay type: in vivo; conditions: foliar, 200 ppm in the applied formulation, wheat leaf segments cv. Kanzler, preventative (inoculated 1 day after application), assessed 7 to 9 days after application, read-out: disease control compared to untreated control leaf disks
Experimental: as §1
Example 1: Fungicidal Activity Against Puccinia recondita f. sp. tritici/Wheat/Leaf Disc Preventative (Brown Rust)
Wheat leaf segments cv. Kanzler were placed on agar in multiwell plates (24-well format) and sprayed with the formulated test compound diluted in water. The leaf disks were inoculated with a spore suspension of the fungus 1 day after application. The inoculated leaf segments were incubated at 19C and 75% relative humidity (rh) under a light regime of 12 hours light/12 hours darkness in a climate cabinet and the activity of a compound was assessed as percent disease control compared to untreated when an appropriate level of disease damage appears in untreated check leaf segments (7 to 9 days after application).
as §2

[5] = 200 ppm in the applied formulation, soybean leaf disks, preventative (inoculated one day after application), assessed 12 to 14 days after application
[6] = 20 ppm in the applied formulation, liquid culture in PDB, 24° C., 3 to 4 days after application

In the case of `CCCCCCNC(=O)c1ccc(-c2noc(C(F)(F)F)n2)cc1` [Compound 3a.29, N-hexyl-4-[5-(trifluoromethyl)-1,2,4-oxadiazol-3-yl]benzamide], the pest or weed control at 200 ppm [1] is reported as at least 80% and the inhibition at 20 ppm [2] is reported as at least 80%.
`CC(CCO)NC(=O)c1ccc(-c2noc(C(F)(F)F)n2)cc1` (stereo not shown) [Compound 3a.15, N-(3-hydroxy-1-methyl-propyl)-4-[5-(trifluoromethyl)-1,2,4-oxadiazol-3-yl]benzamide] was tested, and the pest or weed control at 200 ppm [3] was at least 80% and the pest or weed control at 200 ppm [1, 5] was at least 80%.
Compound `Cc1cc(C#N)c(NC(=O)c2ccc(-c3noc(C(F)(F)F)n3)cc2)s1` [Compound 5a.1, N-(3-cyano-5-methyl-2-thienyl)-4-[5-(trifluoromethyl)-1,2,4-oxadiazol-3-yl]benzamide] has a pest or weed control at 200 ppm [1, 5] of at least 80%.
`O=C(Nc1cn[nH]c1)c1ccc(-c2noc(C(F)(F)F)n2)cc1` [Compound 5a.3, N-(1H-pyrazol-4-yl)-4-[5-(trifluoromethyl)-1,2,4-oxadiazol-3-yl]benzamide] gave a pest or weed control at 200 ppm [1, 5] of at least 80%.
Compound `CC(CCO)NC(=O)c1ccc(-c2noc(C(F)(F)F)n2)cc1F` (stereo not shown) [Compound 3b.17, 2-fluoro-N-(3-hydroxy-1-methyl-propyl)-4-[5-(trifluoromethyl)-1,2,4-oxadiazol-3-yl]benzamide] has a pest or weed control at 200 ppm [3] of at least 80% and a pest or weed control at 200 ppm [1, 5] of at least 80%.
For `CN(C(=O)c1ccc(-c2noc(C(F)(F)F)n2)cc1)C1CCN(C(=O)OC(C)(C)C)C1` (stereo not shown) [Compound 1a.1, tert-butyl 3-[methyl-[4-[5-(trifluoromethyl)-1,2,4-oxadiazol-3-yl]benzoyl]amino]pyrrolidine-1-carboxylate], the pest or weed control at 200 ppm [4] was at least 80%, the pest or weed control at 200 ppm [1, 5] was at least 80% and the inhibition at 20 ppm [2, 6] was at least 80%.
For `CCC(CC)CNC(=O)c1ccc(-c2noc(C(F)(F)F)n2)cc1` [Compound 3a.39, N-(2-ethylbutyl)-4-[5-(trifluoromethyl)-1,2,4-oxadiazol-3-yl]benzamide], the pest or weed control at 200 ppm [1, 5] was at least 80% and the inhibition at 20 ppm [2, 6] was at least 80%.
In the case of `CN(CCO)C(=O)c1ccc(-c2noc(C(F)(F)F)n2)cc1F` [Compound 3b.25, 2-fluoro-N-(2-hydroxyethyl)-N-methyl-4-[5-(trifluoromethyl)-1,2,4-oxadiazol-3-yl]benzamide], the pest or weed control at 200 ppm [1, 5] is reported as at least 80%.
`CC(C#N)(NC(=O)c1ccc(-c2noc(C(F)(F)F)n2)cc1F)C1CC1` (stereo not shown) [Compound 2b.9, N-(1-cyano-1-cyclopropyl-ethyl)-2-fluoro-4-[5-(trifluoromethyl)-1,2,4-oxadiazol-3-yl]benzamide] showed a pest or weed control at 200 ppm [4] of at least 80%, a pest or weed control at 200 ppm [3] of at least 80% and a pest or weed control at 200 ppm [1, 5] of at least 80%.
With `CC(C)(CCO)NC(=O)c1ccc(-c2noc(C(F)(F)F)n2)cc1` [Compound 3a.42, N-(3-hydroxy-1,1-dimethyl-propyl)-4-[5-(trifluoromethyl)-1,2,4-oxadiazol-3-yl]benzamide] the pest or weed control at 200 ppm [1, 5] was at least 80%.
Work on `COC1=NS(C)=NC(N(C)C(=O)c2ccc(-c3noc(C(F)(F)F)n3)cc2F)=N1` (stereo not shown) [Compound 5b.8, 2-fluoro-N-(5-methoxy-1-methyl-1-thia-2,4,6-triazacyclohexa-2,4,6-trien-3-yl)-N-methyl-4-[5-(trifluoromethyl)-1,2,4-oxadiazol-3-yl]benzamide] yielded a pest or weed control at 200 ppm [1, 5] of at least 80%.
With `CN(CCCCO)C(=O)c1ccc(-c2noc(C(F)(F)F)n2)cc1` [Compound 3a.19, N-(4-hydroxybutyl)-N-methyl-4-[5-(trifluoromethyl)-1,2,4-oxadiazol-3-yl]benzamide] the pest or weed control at 200 ppm [1, 5] was at least 80%.
`CN(CC(C)(C)CO)C(=O)c1ccc(-c2noc(C(F)(F)F)n2)cc1` [Compound 3a.8, N-(3-hydroxy-2,2-dimethyl-propyl)-N-methyl-4-[5-(trifluoromethyl)-1,2,4-oxadiazol-3-yl]benzamide] gave a pest or weed control at 200 ppm [1, 5] of at least 80% and an inhibition at 20 ppm [2, 6] of at least 80%.
Work on `CCOC(=O)CC(C)NC(=O)c1ccc(-c2noc(C(F)(F)F)n2)cc1` (stereo not shown) [Compound 3a.26, ethyl 3-[[4-[5-(trifluoromethyl)-1,2,4-oxadiazol-3-yl]benzoyl]amino]butanoate] yielded a pest or weed control at 200 ppm [4] of at least 80%, a pest or weed control at 200 ppm [1, 5] of at least 80% and an inhibition at 20 ppm [2, 6] of at least 80%.
`CCCN(CC1CC1)C(=O)c1ccc(-c2noc(C(F)(F)F)n2)cc1` [Compound 2a.1, N-(cyclopropylmethyl)-N-propyl-4-[5-(trifluoromethyl)-1,2,4-oxadiazol-3-yl]benzamide] gave a pest or weed control at 200 ppm [1, 5] of at least 80% and an inhibition at 20 ppm [2, 6] of at least 80%.
`CC(C)CN(CC(C)C)C(=O)c1ccc(-c2noc(C(F)(F)F)n2)cc1` [Compound 3a.23, N,N-diisobutyl-4-[5-(trifluoromethyl)-1,2,4-oxadiazol-3-yl]benzamide] gave a pest or weed control at 200 ppm [1, 5] of at least 80% and an inhibition at 20 ppm [2, 6] of at least 80%.
Work on `O=C(NCCCCCO)c1ccc(-c2noc(C(F)(F)F)n2)cc1` [Compound 3a.21, N-(5-hydroxypentyl)-4-[5-(trifluoromethyl)-1,2,4-oxadiazol-3-yl]benzamide] yielded a pest or weed control at 200 ppm [3] of at least 80% and a pest or weed control at 200 ppm [1, 5] of at least 80%.
For `CN(CCCO)C(=O)c1ccc(-c2noc(C(F)(F)F)n2)cc1F` [Compound 3b.9, 2-fluoro-N-(3-hydroxypropyl)-N-methyl-4-[5-(trifluoromethyl)-1,2,4-oxadiazol-3-yl]benzamide], the pest or weed control at 200 ppm [3] was at least 80% and the pest or weed control at 200 ppm [1, 5] was at least 80%.
Compound `O=C(NCCCCO)c1ccc(-c2noc(C(F)(F)F)n2)cc1F` [Compound 3b.26, 2-fluoro-N-(4-hydroxybutyl)-4-[5-(trifluoromethyl)-1,2,4-oxadiazol-3-yl]benzamide] has a pest or weed control at 200 ppm [4] of at least 80%, a pest or weed control at 200 ppm [1, 5] of at least 80% and an inhibition at 20 ppm [2, 6] of at least 80%.
Work on `CN(CCCO)C(=O)c1ccc(-c2noc(C(F)(F)F)n2)cc1` [Compound 3a.6, N-(3-hydroxypropyl)-N-methyl-4-[5-(trifluoromethyl)-1,2,4-oxadiazol-3-yl]benzamide] yielded a pest or weed control at 200 ppm [3] of at least 80% and a pest or weed control at 200 ppm [1, 5] of at least 80%.
In the case of `CCCCN(CCO)C(=O)c1ccc(-c2noc(C(F)(F)F)n2)cc1` [Compound 3a.25, N-butyl-N-(2-hydroxyethyl)-4-[5-(trifluoromethyl)-1,2,4-oxadiazol-3-yl]benzamide], the pest or weed control at 200 ppm [1, 5] is reported as at least 80% and the inhibition at 20 ppm [2, 6] is reported as at least 80%.
`CCC(CC)CNC(=O)c1ccc(-c2noc(C(F)(F)F)n2)cc1F` [Compound 3b.42, N-(2-ethylbutyl)-2-fluoro-4-[5-(trifluoromethyl)-1,2,4-oxadiazol-3-yl]benzamide] gave a pest or weed control at 200 ppm [1, 5] of at least 80%.
`COCCN(C(=O)c1ccc(-c2noc(C(F)(F)F)n2)cc1F)C(C)C` [Compound 3b.13, 2-fluoro-N-isopropyl-N-(2-methoxyethyl)-4-[5-(trifluoromethyl)-1,2,4-oxadiazol-3-yl]benzamide] was tested, and the pest or weed control at 200 ppm [1, 5] was at least 80% and the inhibition at 20 ppm [2, 6] was at least 80%.

From patent publication US10959432B2, “Microbiocidal oxadiazole derivatives” (Syngenta Participations AG, priority 2016, dated 2021)
